Results as given in patent US12258328B2, “6-membered heteroaryl-containing aminopyridine compounds as EGFR inhibitors” (YUHAN CORPORATION, priority 2021, dated 2025).
pIC50: −log10 of the molar value. Where two headings read alike, the source gives them in different places.

Tests used:
EGFR del19/T790M/C797S = EGFR del19/T790M/C797S (Homo sapiens, UniProt P00533, C797S/DEL746-750/T790M); test: Biochemical EGFR kinase assay (Lance Ultra TR-FRET), triple mutant del19/T790M/C797S
Method: (§1) Biochemical EGFR kinase assays were conducted using Lance Ultra time-resolved fluorescence resonance energy transfer (TR-FRET) technology from Perkin-Elmer. Compounds of the invention were initially diluted to 20 mM in 100% DMSO for storage and made into kinase buffer solution to create a compound concentration ranging from 0.003 μM and 10 μM.
(§2) Each kinase reactions were incubated at room temperature for 1 hour and then stopped by the addition of 4 μL of stop solution (10 mM EDTA). The specific Europium-labeled-anti-phosphopeptide antibody (PerkinElmer, AD0069) diluted in LANCE detection buffer was then added to a final concentration of 2 nM. After 60 minutes incubation at room temperature the LANCE signal was measured on an EnVision Multilabel Reader (Perkin-Elmer). Excitation wavelength was set at 320 nm and emission monitored at 615 nm (donor) and 665 nm (acceptor). The IC50 values were determined using GraphPad prism software (GraphPad Software, Inc., San Diego, CA, USA).

EGFR wildtype = EGFR wildtype (Homo sapiens, UniProt P00533); test: Biochemical EGFR kinase assay (Lance Ultra TR-FRET), wildtype
Method: as §1, §2

EGFR L858R/C797S = EGFR L858R/C797S (Homo sapiens, UniProt P00533, C797S/L858R); test: Biochemical EGFR kinase assay (Lance Ultra TR-FRET), double mutant L858R/C797S
Method: as §1, §2

EGFR L858R/T790M/C797S = EGFR L858R/T790M/C797S (Homo sapiens, UniProt P00533, C797S/L858R/T790M); test: Biochemical EGFR kinase assay (Lance Ultra TR-FRET), triple mutant L858R/T790M/C797S
Method: as §1, §2

EGFR del19/C797S = EGFR del19/C797S (Homo sapiens, UniProt P00533, C797S/DEL746-750); test: Biochemical EGFR kinase assay (Lance Ultra TR-FRET), double mutant del19/C797S
Method: as §1, §2

[1] = IC50 del19/T790M/C797S (nM) 100 μM ATP, 100 μM ATP
[2] = IC50 WT (nM) 100 μM ATP, 100 μM ATP
[3] = IC50 L858R/C797S (nM) 100 μM ATP, 100 μM ATP
[4] = Km ATP, read-out: IC50 L858R/C797S (nM) Km ATP
[5] = IC50 L858R/T790M/C797S (nM) 100 μM ATP, 100 μM ATP
[6] = Km ATP, read-out: IC50 L858R/T790M/C797S (nM) Km ATP
[7] = IC50 del19/C797S (nM) 100 μM ATP, 100 μM ATP
[8] = Km ATP, read-out: IC50 del19/C797S (nM) Km ATP
[9] = Km ATP, read-out: IC50 del19/T790M/C797S (nM) Km ATP
[10] = Km ATP, read-out: IC50 WT (nM) Km ATP
[11] = ATP at Km, read-out: IC50 del19/T790M/C797S, Km ATP
[12] = IC50 del19/T790M/C797S, 100 μM ATP
[13] = ATP at Km, read-out: IC50 L858R/C797S, Km ATP

Sequence of EGFR L858R/C797S (P00533 25-1210 C797S/L858R): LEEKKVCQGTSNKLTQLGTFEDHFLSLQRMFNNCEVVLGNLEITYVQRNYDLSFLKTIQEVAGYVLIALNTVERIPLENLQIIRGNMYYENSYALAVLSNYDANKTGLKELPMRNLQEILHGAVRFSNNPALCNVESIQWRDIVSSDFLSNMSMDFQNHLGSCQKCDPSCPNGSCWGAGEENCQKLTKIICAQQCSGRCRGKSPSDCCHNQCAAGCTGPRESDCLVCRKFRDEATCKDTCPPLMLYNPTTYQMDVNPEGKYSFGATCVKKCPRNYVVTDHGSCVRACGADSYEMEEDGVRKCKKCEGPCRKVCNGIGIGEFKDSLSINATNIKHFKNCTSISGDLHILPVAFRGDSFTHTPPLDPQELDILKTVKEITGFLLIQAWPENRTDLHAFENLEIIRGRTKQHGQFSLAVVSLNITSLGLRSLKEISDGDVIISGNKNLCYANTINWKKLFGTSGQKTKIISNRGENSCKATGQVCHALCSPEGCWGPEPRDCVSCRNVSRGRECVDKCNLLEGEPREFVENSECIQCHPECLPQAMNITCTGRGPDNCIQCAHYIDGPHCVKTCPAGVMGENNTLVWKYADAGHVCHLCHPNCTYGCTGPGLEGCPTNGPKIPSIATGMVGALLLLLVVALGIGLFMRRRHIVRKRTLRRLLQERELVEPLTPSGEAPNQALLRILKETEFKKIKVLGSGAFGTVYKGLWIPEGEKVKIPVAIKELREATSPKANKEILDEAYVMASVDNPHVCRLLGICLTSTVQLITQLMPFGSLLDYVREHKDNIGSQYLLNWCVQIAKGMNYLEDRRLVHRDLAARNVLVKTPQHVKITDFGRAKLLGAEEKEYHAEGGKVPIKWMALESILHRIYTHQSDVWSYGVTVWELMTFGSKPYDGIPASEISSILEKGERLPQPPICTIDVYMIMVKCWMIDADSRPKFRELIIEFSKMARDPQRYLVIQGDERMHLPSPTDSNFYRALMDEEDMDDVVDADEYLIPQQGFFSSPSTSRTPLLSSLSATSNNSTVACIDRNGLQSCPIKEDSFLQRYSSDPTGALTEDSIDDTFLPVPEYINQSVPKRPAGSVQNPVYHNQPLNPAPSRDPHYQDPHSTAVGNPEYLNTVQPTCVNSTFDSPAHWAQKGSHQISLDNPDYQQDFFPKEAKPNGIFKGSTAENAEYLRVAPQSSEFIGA
Sequence of EGFR L858R/T790M/C797S (P00533 25-1210 T790M/C797S/L858R): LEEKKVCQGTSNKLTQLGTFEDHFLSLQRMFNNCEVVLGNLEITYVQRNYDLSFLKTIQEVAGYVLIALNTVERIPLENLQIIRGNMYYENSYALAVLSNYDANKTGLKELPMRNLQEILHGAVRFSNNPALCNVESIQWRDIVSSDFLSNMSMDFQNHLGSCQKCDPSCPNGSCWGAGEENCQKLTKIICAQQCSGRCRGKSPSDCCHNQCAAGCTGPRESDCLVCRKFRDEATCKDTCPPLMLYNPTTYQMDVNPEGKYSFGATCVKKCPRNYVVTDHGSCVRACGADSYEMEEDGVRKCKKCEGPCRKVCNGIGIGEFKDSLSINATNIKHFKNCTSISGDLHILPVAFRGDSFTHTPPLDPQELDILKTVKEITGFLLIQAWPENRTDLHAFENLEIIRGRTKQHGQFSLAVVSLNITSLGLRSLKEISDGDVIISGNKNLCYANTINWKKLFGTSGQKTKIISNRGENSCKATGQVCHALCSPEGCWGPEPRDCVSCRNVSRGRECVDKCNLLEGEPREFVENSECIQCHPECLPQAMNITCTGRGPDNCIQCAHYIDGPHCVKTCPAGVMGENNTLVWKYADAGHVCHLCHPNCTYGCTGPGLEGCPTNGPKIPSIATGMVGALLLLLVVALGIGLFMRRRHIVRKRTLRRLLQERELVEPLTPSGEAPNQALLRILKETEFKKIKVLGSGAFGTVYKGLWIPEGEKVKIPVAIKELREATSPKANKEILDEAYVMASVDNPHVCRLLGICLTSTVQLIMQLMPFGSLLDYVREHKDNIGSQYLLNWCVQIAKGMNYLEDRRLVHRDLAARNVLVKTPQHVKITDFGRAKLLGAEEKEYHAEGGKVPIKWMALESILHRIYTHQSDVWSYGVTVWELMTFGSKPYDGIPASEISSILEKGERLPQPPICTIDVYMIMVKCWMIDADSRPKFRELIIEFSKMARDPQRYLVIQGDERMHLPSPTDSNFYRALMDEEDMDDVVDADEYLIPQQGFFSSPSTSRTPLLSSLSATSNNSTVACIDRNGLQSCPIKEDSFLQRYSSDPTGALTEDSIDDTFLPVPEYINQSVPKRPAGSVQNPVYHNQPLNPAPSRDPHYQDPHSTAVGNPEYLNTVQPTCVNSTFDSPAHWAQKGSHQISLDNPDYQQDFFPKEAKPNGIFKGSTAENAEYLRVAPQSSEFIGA
Sequence of EGFR wildtype (P00533 25-1210): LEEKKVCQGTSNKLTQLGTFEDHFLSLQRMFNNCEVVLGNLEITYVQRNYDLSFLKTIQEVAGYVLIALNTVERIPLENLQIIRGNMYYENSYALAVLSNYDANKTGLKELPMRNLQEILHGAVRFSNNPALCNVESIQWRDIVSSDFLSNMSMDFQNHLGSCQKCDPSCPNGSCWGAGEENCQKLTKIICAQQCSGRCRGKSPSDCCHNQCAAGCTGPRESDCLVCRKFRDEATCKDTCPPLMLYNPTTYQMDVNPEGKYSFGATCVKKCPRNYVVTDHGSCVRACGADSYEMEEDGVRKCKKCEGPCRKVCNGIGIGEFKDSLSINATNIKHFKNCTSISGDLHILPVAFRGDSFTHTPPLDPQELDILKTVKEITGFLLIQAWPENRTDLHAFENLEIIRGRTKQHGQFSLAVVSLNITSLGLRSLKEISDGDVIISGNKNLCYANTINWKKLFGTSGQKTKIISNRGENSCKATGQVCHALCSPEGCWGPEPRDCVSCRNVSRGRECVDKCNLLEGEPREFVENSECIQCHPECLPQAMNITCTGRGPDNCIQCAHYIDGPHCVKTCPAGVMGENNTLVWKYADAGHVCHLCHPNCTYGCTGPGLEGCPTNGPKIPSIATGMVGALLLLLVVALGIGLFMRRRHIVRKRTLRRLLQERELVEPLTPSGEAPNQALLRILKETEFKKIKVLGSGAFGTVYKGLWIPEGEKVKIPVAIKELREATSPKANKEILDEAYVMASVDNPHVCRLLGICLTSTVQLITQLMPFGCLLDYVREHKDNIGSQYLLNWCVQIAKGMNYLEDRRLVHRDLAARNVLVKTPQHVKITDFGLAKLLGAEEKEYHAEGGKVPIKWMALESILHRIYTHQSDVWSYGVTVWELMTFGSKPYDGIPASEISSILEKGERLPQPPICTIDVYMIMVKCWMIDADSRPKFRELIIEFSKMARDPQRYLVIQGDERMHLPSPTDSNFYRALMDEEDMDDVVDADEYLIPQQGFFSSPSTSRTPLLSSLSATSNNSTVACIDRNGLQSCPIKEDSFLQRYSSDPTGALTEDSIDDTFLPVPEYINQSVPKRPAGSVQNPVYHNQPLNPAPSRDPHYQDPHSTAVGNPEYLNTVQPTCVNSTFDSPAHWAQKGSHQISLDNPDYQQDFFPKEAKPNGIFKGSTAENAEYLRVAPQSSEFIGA
Sequence of EGFR del19/T790M/C797S (P00533 with tags, fused parts or gaps DEL746-750/T790M/C797S): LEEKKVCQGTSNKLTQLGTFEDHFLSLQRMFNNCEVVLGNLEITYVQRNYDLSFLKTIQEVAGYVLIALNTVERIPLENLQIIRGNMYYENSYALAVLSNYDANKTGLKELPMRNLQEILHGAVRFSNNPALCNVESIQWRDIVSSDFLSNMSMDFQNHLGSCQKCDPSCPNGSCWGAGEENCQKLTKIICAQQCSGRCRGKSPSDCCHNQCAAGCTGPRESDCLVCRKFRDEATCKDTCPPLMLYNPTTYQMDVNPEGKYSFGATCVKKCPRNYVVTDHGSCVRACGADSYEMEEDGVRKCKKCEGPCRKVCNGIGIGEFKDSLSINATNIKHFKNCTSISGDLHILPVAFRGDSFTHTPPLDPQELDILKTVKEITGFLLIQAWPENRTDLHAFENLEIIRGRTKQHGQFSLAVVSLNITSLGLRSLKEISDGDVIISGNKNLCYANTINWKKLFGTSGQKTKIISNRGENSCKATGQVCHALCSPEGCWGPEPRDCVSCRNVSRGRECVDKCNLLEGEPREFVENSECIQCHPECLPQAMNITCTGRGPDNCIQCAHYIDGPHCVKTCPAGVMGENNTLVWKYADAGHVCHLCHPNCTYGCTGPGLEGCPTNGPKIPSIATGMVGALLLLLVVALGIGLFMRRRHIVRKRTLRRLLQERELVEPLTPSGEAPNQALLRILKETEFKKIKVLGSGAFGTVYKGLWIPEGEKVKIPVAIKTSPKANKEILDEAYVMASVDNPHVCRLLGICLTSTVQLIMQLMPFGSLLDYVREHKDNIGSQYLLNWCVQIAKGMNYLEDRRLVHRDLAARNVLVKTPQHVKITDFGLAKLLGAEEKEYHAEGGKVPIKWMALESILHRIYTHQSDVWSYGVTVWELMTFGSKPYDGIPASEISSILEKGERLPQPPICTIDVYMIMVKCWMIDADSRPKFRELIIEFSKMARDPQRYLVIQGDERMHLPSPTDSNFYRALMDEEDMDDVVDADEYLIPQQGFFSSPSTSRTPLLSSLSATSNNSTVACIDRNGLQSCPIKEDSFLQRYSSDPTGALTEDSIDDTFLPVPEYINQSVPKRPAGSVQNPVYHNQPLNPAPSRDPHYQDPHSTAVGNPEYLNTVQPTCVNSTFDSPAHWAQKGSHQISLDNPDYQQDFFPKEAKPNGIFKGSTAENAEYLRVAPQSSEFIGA

**Q.** Which IC50 (EGFR del19/T790M/C797S; [1]) does the source give for `C[C@]1(O)CC[C@@H](Nc2cc(Nc3ccnc(-c4cnn(S(=O)(=O)C5CC5)c4)n3)ncc2-c2ccc(N3CCOCC3)cn2)CC1` [Example 38, (1s,4s)-4-((6′-((2-(1-(Cyclopropylsulfonyl)-1H-pyrazol-4-yl)pyrimidin-4-yl)amino)-5-morpholino-[2,3′-bipyridin]-4′-yl)amino)-1-methylcyclohexan-1-ol] here?
**A.** 0.4 nM

**Q.** And the IC50 (EGFR wildtype; [2])?
**A.** 1430 nM

**Q.** What about the IC50 (EGFR L858R/C797S; [3]) of the same compound?
**A.** 4.3 nM

**Q.** And the IC50 (EGFR L858R/C797S; [4])?
**A.** 0.9 nM

**Q.** What about the IC50 (EGFR L858R/T790M/C797S; [5]) of the same compound?
**A.** 0.7 nM

**Q.** What about the IC50 (EGFR L858R/T790M/C797S; [6]) of the same compound?
**A.** 0.2 nM

**Q.** And the IC50 (EGFR del19/C797S; [7])?
**A.** 0.6 nM

**Q.** And the IC50 (EGFR del19/C797S; [8])?
**A.** 0.3 nM

**Q.** Which IC50 (EGFR del19/T790M/C797S; [1]) does the source give for `CN(C)CCOc1cnc(-c2cnc(Nc3ccnc(-c4cnn(S(=O)(=O)C5CC5)c4)n3)cc2NC2CCC(C)(O)CC2)cn1` (stereo not shown) [Example 115, (1s,4s)-4-((2-((2-(1-(Cyclopropylsulfonyl)-1H-pyrazol-4-yl)pyrimidin-4-yl)amino)-5-(5-(2-(dimethylamino)ethoxy)pyrazin-2-yl)pyridin-4-yl)amino)-1-methylcyclohexan-1-ol] here?
**A.** 0.4 nM

**Q.** What about the IC50 (EGFR del19/T790M/C797S; [9]) of the same compound?
**A.** 0.1 nM

**Q.** And the IC50 (EGFR wildtype; [2])?
**A.** > 10000 nM

**Q.** What about the IC50 (EGFR wildtype; [10]) of the same compound?
**A.** 1.8 nM

**Q.** And the IC50 (EGFR L858R/C797S; [3])?
**A.** 0.5 nM

**Q.** And the IC50 (EGFR L858R/C797S; [4])?
**A.** 0.1 nM

**Q.** What about the IC50 (EGFR L858R/T790M/C797S; [5]) of the same compound?
**A.** 0.1 nM

**Q.** And the IC50 (EGFR L858R/T790M/C797S; [6])?
**A.** 0.1 nM

**Q.** What about the IC50 (EGFR del19/C797S; [7]) of the same compound?
**A.** 0.8 nM

**Q.** And the IC50 (EGFR del19/C797S; [8])?
**A.** 0.4 nM

**Q.** For `Cc1ccc(-c2cnc(Nc3ccnc(-c4cnn(S(=O)(=O)C5CC5)c4)n3)cc2N[C@H]2CC[C@@](C)(O)CC2)nn1` [Example 52, (1s,4s)-4-((2-((2-(1-(Cyclopropylsulfonyl)-1H-pyrazol-4-yl)pyrimidin-4-yl)amino)-5-(6-methylpyridazin-3-yl)pyridin-4-yl)amino)-1-methylcyclohexan-1-ol], which IC50 (EGFR del19/T790M/C797S; [1]) is on record?
**A.** 0.5 nM

**Q.** And the IC50 (EGFR del19/T790M/C797S; [9])?
**A.** 0.3 nM

**Q.** And the IC50 (EGFR wildtype; [2])?
**A.** > 10000 nM

**Q.** What about the IC50 (EGFR wildtype; [10]) of the same compound?
**A.** 3 nM

**Q.** What about the IC50 (EGFR L858R/C797S; [4]) of the same compound?
**A.** 0.6 nM

**Q.** And the IC50 (EGFR L858R/T790M/C797S; [5])?
**A.** 0.3 nM

**Q.** What about the IC50 (EGFR L858R/T790M/C797S; [6]) of the same compound?
**A.** 0.1 nM

**Q.** What about the IC50 (EGFR del19/C797S; [7]) of the same compound?
**A.** 0.6 nM

**Q.** And the IC50 (EGFR del19/C797S; [8])?
**A.** 0.5 nM

**Q.** Which results are given for `O=S(=O)(C1CC1)n1cc(-c2nccc(Nc3cc(NCC4(CO)COC4)c(-c4cccc(F)n4)cn3)n2)cn1` [Example 161, (3-(((6′-((2-(1-(Cyclopropylsulfonyl)-1H-pyrazol-4-yl)pyrimidin-4-yl)amino)-6-fluoro-[2,3′-bipyridin]-4′-yl)amino)methyl)oxetan-3-yl)methanol]?
**A.** pIC50 (EGFR del19/T790M/C797S; [11]): 10.00; pIC50 (EGFR del19/T790M/C797S; [12]): 10.00; pIC50 (EGFR wildtype; ATP at Km, read-out: IC50 WT, Km ATP): 7.94; pIC50 (EGFR wildtype; IC50 WT, 100 μM ATP): < 5.00; pIC50 (EGFR L858R/C797S; [13]): 8.72; pIC50 (EGFR L858R/C797S; IC50 L858R/C797S, 100 μM ATP): 7.91; pIC50 (EGFR L858R/T790M/C797S; ATP at Km, read-out: IC50 L858R/T790M/C797S, Km ATP): 10.00; pIC50 (EGFR L858R/T790M/C797S; IC50 L858R/T790M/C797S, 100 μM ATP): 9.30; pIC50 (EGFR del19/C797S; ATP at Km, read-out: IC50 del19/C797S, Km ATP): 9.05; pIC50 (EGFR del19/C797S; IC50 del19/C797S, 100 μM ATP): 8.92

**Q.** With `C[C@]1(O)CC[C@@H](Nc2cc(Nc3ccnc(-c4cnn(S(=O)(=O)C5CC5)c4)n3)ncc2-c2ccc(N3CCC(O)CC3)cn2)CC1` [Example 49, 1-(6′-((2-(1-(Cyclopropylsulfonyl)-1H-pyrazol-4-yl)pyrimidin-4-yl)amino)-4′-(((1s,4s)-4-hydroxy-4-methylcyclohexyl)amino)-[2,3′-bipyridin]-5-yl) piperidin-4-ol] as the compound, how does the IC50 (EGFR del19/T790M/C797S; [1]) read?
**A.** 0.3 nM

**Q.** And the IC50 (EGFR del19/T790M/C797S; [9])?
**A.** 0.3 nM

**Q.** What about the IC50 (EGFR wildtype; [2]) of the same compound?
**A.** 294 nM

**Q.** What about the IC50 (EGFR wildtype; [10]) of the same compound?
**A.** 0.5 nM

**Q.** What about the IC50 (EGFR L858R/C797S; [3]) of the same compound?
**A.** 2.4 nM

**Q.** What about the IC50 (EGFR L858R/C797S; [4]) of the same compound?
**A.** 0.3 nM

**Q.** And the IC50 (EGFR L858R/T790M/C797S; [5])?
**A.** 0.3 nM

**Q.** And the IC50 (EGFR L858R/T790M/C797S; [6])?
**A.** 0.1 nM

**Q.** And the IC50 (EGFR del19/C797S; [7])?
**A.** 0.8 nM

**Q.** And the IC50 (EGFR del19/C797S; [8])?
**A.** 0.5 nM

**Q.** How did the IC50 (EGFR del19/T790M/C797S; [9]) turn out when `CC(C)Nc1cc(Nc2ccnc(-c3cnn(S(=O)(=O)C4CC4)c3)n2)ncc1-c1cnc(C(C)(C)O)cn1` [Example 121, 2-(5-(6-((2-(1-(Cyclopropylsulfonyl)-1H-pyrazol-4-yl)pyrimidin-4-yl)amino)-4-(isopropylamino)pyridin-3-yl)pyrazin-2-yl)propan-2-ol] was run?
**A.** 0.5 nM

**Q.** And the IC50 (EGFR wildtype; [10])?
**A.** 22.6 nM

**Q.** What about the IC50 (EGFR L858R/C797S; [4]) of the same compound?
**A.** 2.9 nM

**Q.** And the IC50 (EGFR L858R/T790M/C797S; [6])?
**A.** 0.2 nM

**Q.** And the IC50 (EGFR del19/C797S; [8])?
**A.** 4.6 nM

**Q.** Which results are given for `C[C@]1(O)CC[C@@H](Nc2cc(Nc3ccnc(-c4cnn(S(=O)(=O)C5CC5)c4)n3)ncc2-c2ccc(S(=O)(=O)N3CCOCC3)cn2)CC1` [Example 182, (1s,4s)-4-((6′-((2-(1-(Cyclopropylsulfonyl)-1H-pyrazol-4-yl)pyrimidin-4-yl)amino)-5-(morpholinosulfonyl)-[2,3′-bipyridin]-4′-yl)amino)-1-methylcyclohexan-1-ol]?
**A.** pIC50 (EGFR del19/T790M/C797S; [11]): 8.54; pIC50 (EGFR del19/T790M/C797S; [12]): 8.19; pIC50 (EGFR wildtype; IC50 WT, 100 μM ATP): < 5.00; pIC50 (EGFR L858R/C797S; [13]): 9.05; pIC50 (EGFR L858R/C797S; IC50 L858R/C797S, 100 μM ATP): 8.46; pIC50 (EGFR del19/C797S; IC50 del19/C797S, 100 μM ATP): 8.43
